Assays:
Nitric oxide synthase 1 [1] = target: Nitric oxide synthase 1 (Rattus norvegicus, UniProt P29476)
in vitro [2] = conditions: human, liver microsomes
Nitric oxide synthase 1 [3] = target: Nitric oxide synthase 1 (Homo sapiens, UniProt P29475)
in vitro [4] = conditions: human, liver microsomes; remark: listed apart in the source
[5] = target: Nitric oxide synthase, inducible (Homo sapiens, UniProt P35228)
in vitro [6] = conditions: human, liver microsomes; remark: listed apart in the source
in vitro [7] = conditions: human, liver microsomes, pH 7.4
Nitric oxide synthase 3 = target: T1, Nitric oxide synthase 3 (Homo sapiens, UniProt P29474)
T1 sequence (P29474 whole entry): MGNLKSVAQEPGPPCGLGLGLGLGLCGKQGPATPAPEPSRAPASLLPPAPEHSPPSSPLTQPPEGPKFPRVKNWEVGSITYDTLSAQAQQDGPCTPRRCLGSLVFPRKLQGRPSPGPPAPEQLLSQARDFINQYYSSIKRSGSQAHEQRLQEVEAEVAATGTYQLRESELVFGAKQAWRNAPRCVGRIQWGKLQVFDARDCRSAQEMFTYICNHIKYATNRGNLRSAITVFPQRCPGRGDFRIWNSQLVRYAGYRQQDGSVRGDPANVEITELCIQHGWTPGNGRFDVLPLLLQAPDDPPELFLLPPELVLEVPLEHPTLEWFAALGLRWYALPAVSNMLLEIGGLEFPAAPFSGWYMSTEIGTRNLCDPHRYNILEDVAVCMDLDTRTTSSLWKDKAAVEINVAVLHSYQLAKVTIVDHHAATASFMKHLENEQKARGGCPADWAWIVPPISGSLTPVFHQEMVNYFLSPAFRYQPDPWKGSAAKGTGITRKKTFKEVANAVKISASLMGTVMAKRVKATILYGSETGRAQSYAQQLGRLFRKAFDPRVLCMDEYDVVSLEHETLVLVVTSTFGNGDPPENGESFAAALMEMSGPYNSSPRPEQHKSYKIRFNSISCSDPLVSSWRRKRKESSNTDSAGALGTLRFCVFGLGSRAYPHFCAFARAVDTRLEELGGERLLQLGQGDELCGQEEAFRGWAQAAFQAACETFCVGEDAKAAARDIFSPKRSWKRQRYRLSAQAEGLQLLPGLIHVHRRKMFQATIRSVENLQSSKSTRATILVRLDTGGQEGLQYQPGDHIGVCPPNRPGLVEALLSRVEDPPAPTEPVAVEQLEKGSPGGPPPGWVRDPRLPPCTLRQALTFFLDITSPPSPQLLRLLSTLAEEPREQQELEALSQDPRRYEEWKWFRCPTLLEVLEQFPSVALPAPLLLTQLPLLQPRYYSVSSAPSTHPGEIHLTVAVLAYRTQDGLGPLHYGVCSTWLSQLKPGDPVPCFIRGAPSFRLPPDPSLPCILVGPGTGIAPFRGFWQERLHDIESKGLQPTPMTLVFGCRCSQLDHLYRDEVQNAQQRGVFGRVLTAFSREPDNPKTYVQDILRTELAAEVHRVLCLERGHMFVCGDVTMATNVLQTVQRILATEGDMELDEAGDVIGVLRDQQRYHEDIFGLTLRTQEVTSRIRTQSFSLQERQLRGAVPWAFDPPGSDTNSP

Nitric oxide synthase 1 [8] = target: Nitric oxide synthase 1 (Rattus norvegicus, UniProt P29476, D597N)
Sequence of Nitric oxide synthase 1 (Rattus norvegicus, UniProt P29476, D597N) (P29476 whole entry D597N): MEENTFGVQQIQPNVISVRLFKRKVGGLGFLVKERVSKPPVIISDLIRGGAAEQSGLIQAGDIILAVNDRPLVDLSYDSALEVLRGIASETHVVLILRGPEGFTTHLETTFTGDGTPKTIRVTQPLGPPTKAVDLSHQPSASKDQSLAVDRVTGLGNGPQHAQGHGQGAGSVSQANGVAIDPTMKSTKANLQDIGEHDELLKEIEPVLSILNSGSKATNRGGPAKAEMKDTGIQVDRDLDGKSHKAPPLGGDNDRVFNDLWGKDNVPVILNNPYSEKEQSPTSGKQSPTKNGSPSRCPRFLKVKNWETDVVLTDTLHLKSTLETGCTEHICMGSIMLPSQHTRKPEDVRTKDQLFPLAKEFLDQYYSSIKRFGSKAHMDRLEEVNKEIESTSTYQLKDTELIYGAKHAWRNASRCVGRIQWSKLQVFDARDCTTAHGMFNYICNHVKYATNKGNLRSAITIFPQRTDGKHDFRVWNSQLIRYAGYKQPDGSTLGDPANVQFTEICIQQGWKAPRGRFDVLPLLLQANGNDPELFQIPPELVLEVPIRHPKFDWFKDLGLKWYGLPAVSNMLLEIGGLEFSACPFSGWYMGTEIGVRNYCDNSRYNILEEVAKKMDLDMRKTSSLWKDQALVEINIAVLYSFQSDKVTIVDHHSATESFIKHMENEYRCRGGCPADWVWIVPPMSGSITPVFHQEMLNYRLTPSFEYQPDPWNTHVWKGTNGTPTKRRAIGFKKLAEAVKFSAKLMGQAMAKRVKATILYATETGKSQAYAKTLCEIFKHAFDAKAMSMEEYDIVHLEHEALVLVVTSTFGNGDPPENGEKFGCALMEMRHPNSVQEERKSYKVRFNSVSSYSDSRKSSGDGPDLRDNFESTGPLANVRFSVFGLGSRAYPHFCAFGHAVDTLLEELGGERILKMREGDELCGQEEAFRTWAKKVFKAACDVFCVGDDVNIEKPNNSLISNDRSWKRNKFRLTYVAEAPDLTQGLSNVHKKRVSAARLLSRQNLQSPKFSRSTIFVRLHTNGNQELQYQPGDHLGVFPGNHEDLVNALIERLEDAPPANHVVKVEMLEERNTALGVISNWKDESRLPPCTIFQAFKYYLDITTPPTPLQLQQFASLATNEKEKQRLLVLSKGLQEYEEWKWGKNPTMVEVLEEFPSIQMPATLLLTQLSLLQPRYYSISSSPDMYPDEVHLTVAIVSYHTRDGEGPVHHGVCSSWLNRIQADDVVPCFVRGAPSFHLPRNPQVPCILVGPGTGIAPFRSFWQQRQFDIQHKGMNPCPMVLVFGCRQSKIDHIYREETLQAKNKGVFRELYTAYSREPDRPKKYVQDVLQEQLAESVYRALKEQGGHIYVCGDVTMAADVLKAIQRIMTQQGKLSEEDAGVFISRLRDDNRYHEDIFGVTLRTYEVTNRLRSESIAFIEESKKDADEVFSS

Sequence of Nitric oxide synthase 1 (Homo sapiens, UniProt P29475) (P29475 whole entry): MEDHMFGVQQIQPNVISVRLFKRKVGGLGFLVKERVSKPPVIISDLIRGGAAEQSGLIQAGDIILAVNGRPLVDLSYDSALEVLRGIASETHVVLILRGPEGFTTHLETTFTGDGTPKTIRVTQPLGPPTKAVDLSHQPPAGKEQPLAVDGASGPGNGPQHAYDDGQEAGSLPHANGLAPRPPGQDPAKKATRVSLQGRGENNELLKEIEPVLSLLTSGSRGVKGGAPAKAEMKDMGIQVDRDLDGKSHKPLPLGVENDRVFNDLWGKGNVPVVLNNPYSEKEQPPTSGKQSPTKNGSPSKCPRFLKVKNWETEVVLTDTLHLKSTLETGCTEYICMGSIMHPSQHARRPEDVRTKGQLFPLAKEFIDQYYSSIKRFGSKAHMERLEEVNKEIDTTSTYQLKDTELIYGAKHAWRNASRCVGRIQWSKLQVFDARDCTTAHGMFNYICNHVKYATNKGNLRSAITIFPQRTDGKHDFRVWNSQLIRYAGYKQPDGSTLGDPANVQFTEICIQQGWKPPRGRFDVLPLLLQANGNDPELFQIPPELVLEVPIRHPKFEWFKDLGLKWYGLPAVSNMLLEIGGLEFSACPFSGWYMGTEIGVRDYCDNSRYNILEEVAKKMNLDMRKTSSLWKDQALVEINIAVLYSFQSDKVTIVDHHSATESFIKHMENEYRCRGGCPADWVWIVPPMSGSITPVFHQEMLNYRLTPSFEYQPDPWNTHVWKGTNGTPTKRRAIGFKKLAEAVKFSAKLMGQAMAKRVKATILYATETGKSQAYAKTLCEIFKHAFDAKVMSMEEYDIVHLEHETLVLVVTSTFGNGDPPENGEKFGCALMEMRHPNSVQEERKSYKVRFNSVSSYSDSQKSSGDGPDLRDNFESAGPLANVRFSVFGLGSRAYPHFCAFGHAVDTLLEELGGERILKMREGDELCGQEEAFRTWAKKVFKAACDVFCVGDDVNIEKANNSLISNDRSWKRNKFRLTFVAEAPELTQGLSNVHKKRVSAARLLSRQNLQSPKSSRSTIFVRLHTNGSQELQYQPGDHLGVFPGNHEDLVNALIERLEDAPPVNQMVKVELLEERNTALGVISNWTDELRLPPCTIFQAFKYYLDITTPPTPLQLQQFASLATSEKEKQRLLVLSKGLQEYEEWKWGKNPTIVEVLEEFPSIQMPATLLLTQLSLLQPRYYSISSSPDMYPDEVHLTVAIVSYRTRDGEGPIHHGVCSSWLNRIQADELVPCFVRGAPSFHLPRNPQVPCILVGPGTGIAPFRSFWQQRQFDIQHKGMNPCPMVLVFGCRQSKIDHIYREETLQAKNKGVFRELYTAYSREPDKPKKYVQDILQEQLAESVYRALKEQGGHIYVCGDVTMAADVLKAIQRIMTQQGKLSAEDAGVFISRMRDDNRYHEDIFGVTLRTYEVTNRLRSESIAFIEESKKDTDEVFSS
Sequence of Nitric oxide synthase, inducible (P35228 whole entry): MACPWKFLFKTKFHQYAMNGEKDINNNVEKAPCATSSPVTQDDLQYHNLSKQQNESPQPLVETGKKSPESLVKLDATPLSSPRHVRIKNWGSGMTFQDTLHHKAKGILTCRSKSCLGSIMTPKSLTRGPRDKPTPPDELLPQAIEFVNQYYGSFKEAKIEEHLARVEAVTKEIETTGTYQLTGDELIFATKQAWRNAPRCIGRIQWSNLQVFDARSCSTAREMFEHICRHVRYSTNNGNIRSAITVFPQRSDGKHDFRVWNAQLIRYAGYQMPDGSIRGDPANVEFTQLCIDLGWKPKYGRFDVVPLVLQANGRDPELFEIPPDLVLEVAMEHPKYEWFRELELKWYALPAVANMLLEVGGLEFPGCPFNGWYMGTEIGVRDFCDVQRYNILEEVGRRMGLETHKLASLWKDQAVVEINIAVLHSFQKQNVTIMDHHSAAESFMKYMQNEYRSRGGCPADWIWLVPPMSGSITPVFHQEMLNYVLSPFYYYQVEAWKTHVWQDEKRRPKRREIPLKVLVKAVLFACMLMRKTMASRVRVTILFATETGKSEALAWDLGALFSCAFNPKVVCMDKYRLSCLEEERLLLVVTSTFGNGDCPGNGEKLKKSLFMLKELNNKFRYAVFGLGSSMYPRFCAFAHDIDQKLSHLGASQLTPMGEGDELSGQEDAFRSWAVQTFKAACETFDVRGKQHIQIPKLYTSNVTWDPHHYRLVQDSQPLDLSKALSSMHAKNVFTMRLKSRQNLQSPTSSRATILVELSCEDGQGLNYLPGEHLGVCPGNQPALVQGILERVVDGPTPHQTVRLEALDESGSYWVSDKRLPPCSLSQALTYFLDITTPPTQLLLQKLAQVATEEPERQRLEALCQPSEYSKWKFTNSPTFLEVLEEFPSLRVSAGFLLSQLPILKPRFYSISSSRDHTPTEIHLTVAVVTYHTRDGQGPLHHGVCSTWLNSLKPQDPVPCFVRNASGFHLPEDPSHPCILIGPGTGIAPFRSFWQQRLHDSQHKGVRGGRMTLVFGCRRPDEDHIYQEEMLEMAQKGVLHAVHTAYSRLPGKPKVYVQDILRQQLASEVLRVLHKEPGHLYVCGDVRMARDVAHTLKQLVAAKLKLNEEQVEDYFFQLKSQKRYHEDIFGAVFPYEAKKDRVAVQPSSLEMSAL
Sequence of Nitric oxide synthase 1 (Rattus norvegicus, UniProt P29476) (P29476 whole entry): as the sequence (P29476 whole entry D597N) above, with N597D counted along it

Ki (Nitric oxide synthase 1 [1]): 0.055 µM
CLint scaled at 1 h, 1.426 µM (in vitro [2]): 8 mL/min/kg
Ki (Nitric oxide synthase 1 [3]): 0.06 µM
half-life at 1 h, 1.426 µM (in vitro [4]): > 1 h
Ki [5]: 29.9 µM
remaining at 1 h, 1.426 µM (in vitro [6]): 87%
remaining at 1 h, 1.426 µM (in vitro [7]): 67%
Ki (Nitric oxide synthase 3): 52.6 µM
Ki (Nitric oxide synthase 1 [8]): 0.416 µM
Structure (SMILES): Cc1cc(N)nc2cc(-c3cccc(CN)c3)ccc12.Cl.Cl
